Patent US7795261B2, “Substituted 1-piperidin-4-yl-4-pyrrolidin-3-yl-piperazine derivatives and their use as neurokinin antagonists” (Janssen Pharmaceutica NV, priority 2002, dated 2010)

Key:
Type in all cases: cell-based
[1] = molecular target: NK1 (Homo sapiens, UniProt P25103); test: Signal transduction (ST), intracellular Ca++ (FLIPR), NK1 antagonistic activity; conditions: read-out: pIC50 NK1 (converted)
Outline: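 Antagonist IC50 was fitted by non-linear regression of peak intracellular Ca++ signals measured on FLIPR after agonist challenge. Beforehand, Fluo3-loaded confluent cells received antagonists over a concentration range for 20 min at room temperature in Ca++ Krebs buffer, pH 7.4.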

[2] = molecular target: T1, NK2 (Homo sapiens, UniProt P21452); test: Signal transduction (ST), intracellular Ca++ (FLIPR), NK2; conditions: read-out: pIC50 NK2 (converted)
T1 sequence (P21452 1-398): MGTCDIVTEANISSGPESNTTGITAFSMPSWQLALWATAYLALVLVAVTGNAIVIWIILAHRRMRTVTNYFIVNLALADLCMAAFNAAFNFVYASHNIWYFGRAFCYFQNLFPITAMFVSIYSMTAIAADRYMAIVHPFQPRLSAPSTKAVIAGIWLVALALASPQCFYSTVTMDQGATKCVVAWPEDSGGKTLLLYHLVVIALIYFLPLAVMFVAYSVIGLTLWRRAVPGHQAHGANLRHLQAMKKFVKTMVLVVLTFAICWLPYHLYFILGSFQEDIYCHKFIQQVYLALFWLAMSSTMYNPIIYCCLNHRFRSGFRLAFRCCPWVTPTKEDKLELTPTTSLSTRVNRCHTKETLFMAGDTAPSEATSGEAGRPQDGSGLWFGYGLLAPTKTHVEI
Procedure: [The procedure below names another target; the source lists this target under the same test.] This test evaluates in vitro functional NK1 antagonistic activity. For the measurements of intracellular Ca^++ concentrations the cells were grown on 96-well (black wall/transparent bottom) plates from Costar for 2 days until they reached confluence. The cells were loaded with 2 μM Fluo3 in DMEM containing 0.1% BSA and 2.5 mM probenecid for 1 h at 37° C. They were washed 3× with a Krebs buffer (140 mM NaCl, 1 mM MgCl2×6H2O, 5 mM KCl, 10 mM glucose, 5 mM HEPES; 1.25 mM CaCl2; pH 7.4) containing 2.5 mM probenecid and 0.1% BSA (Ca^++-buffer). The cells were preincubated with a concentration range of antagonists for 20 min at RT and Ca^++-signals after addition of the agonists were measured in a Fluorescence Image Plate Reader (FLIPR from Molecular Devices, Crawley, England). The peak of the Ca^++-transient was considered as the relevant signal and the mean values of corresponding wells were analysed as described below.
The sigmoidal dose response curves were analysed by computerised curve-fitting, using the GraphPad Program. […] For antagonist responses the IC50-value was calculated using non-linear regression.
The last columns indicates—without being limited therefore—for which the compounds might be most suitable. Of course, since for some neurokinin receptors no data was determined, it is obvious that these compounds might be attributed to another suitable use.

[3] = molecular target: T2, NK3 (Homo sapiens, UniProt P29371); test: Signal transduction (ST), intracellular Ca++ (FLIPR), NK3; conditions: read-out: pIC50 NK3 (converted)
T2 sequence (P29371 1-465): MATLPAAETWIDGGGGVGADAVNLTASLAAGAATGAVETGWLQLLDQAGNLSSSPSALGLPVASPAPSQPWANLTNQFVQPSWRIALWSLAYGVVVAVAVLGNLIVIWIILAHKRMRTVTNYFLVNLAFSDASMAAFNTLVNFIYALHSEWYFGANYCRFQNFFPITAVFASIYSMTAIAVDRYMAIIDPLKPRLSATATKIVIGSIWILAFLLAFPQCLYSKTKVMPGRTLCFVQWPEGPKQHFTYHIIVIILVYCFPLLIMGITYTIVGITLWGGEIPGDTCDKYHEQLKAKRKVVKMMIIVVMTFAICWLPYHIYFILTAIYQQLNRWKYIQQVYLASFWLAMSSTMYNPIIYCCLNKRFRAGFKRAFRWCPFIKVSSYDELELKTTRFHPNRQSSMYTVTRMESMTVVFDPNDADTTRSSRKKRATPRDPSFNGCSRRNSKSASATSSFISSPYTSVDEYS

Sequence of NK1 (P25103 whole entry): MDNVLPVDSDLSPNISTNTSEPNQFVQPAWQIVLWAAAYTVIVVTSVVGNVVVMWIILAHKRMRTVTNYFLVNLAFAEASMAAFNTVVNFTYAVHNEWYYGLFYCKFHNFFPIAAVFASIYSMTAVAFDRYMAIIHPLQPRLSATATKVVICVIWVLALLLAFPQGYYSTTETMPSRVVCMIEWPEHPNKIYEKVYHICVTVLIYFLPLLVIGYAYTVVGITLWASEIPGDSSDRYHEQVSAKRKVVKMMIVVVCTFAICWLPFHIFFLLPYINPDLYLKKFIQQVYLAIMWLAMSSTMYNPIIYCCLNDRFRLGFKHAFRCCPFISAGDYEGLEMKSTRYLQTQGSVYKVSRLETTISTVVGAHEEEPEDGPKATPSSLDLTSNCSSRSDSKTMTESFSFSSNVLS

Structure (SMILES) | IC50 [1] | IC50 [2] | IC50 [3]
O=C(c1cc(C(F)(F)F)cc(C(F)(F)F)c1)N1CC[C@H](N2CCN(C3CCN(C(=O)C4(O)CC4)C3)CC2)C[C@H]1Cc1ccccc1 (stereo partly drawn) [Compound 276] | 10 nM | 3160 nM | 5010 nM
O=C(C1CC1)N1CCC(N2CCN([C@H]3CCN(C(=O)c4cc(C(F)(F)F)cc(C(F)(F)F)c4)[C@H](Cc4ccc(Cl)c(Cl)c4)C3)CC2)C1 (relative stereo) [Compound 162] | 10 nM | 1000 nM | 501 nM
O=C(C1CCOC1)N1CCC(N2CCN(C3CCN(C(=O)c4cc(C(F)(F)F)cc(C(F)(F)F)c4)C(Cc4ccc(Cl)c(Cl)c4)C3)CC2)C1 (stereo not drawn) [Compound 172] | 7.94 nM | 794 nM | 398 nM
O=C(c1cc(Cl)sc1Cl)N1CCC(N2CCN([C@H]3CCN(C(=O)c4cc(C(F)(F)F)cc(C(F)(F)F)c4)[C@H](Cc4ccccc4)C3)CC2)C1 (stereo partly drawn) [Compound 44] | 50.1 nM | 6310 nM | 631 nM
O=C(c1ccccc1F)N1CCC(N2CCN([C@H]3CCN(C(=O)c4cc(C(F)(F)F)cc(C(F)(F)F)c4)[C@H](Cc4ccccc4)C3)CC2)C1 (stereo partly drawn) [Compound 16] | 31.6 nM | 5010 nM | 2510 nM
O=C(c1cc(C(F)(F)F)cc(C(F)(F)F)c1)N1CC[C@H](N2CCN(C3CCN(S(=O)(=O)c4sccc4COCc4ccccc4)C3)CC2)C[C@H]1Cc1ccccc1 (stereo partly drawn) [Compound 292] | 100 nM | 794 nM | 794 nM
CC(C)(C)OC(=O)N1CCCCC1C(=O)N1CCC(N2CCN(C3CCN(C(=O)c4cc(C(F)(F)F)cc(C(F)(F)F)c4)C(Cc4ccccc4)C3)CC2)C1 (stereo not drawn) [Compound 206] | 10 nM | 794 nM | 251 nM
CC(C)NC(=O)N1CCC(N2CCN([C@H]3CCN(C(=O)c4cc(C(F)(F)F)cc(C(F)(F)F)c4)[C@H](Cc4ccccc4)C3)CC2)C1 (stereo partly drawn) [Compound 293] | 15.8 nM | 6310 nM | 5010 nM
O=C(c1c(Cl)cccc1Cl)N1CCC(N2CCN(C3CCN(C(=O)c4cc(C(F)(F)F)cc(C(F)(F)F)c4)C(Cc4ccc(F)c(F)c4)C3)CC2)C1 (stereo not drawn) [Compound 256] | 25.1 nM | 1580 nM | 398 nM
O=C(c1ccco1)N1CCC(N2CCN([C@H]3CCN(C(=O)c4cc(C(F)(F)F)cc(C(F)(F)F)c4)[C@H](Cc4ccccc4)C3)CC2)C1 (stereo partly drawn) [Compound 35] | 25.1 nM | 3980 nM | 200 nM
O=C(c1c(Cl)cccc1Cl)N1CCC(N2CCN([C@H]3CCN(C(=O)c4cc(C(F)(F)F)cc(C(F)(F)F)c4)[C@H](Cc4ccccc4)C3)CC2)C1 (stereo partly drawn) [Compound 169] | 12.6 nM | 2510 nM | 251 nM
O=C(c1cc(C(F)(F)F)cc(C(F)(F)F)c1)N1CC[C@H](N2CCN(C3CCN(S(=O)(=O)c4cccs4)C3)CC2)C[C@H]1Cc1ccccc1 (stereo partly drawn) [Compound 76] | 20 nM | 1260 nM | 200 nM
O=C(c1cccs1)N1CCC(N2CCN(C3CCN(C(=O)c4cc(C(F)(F)F)cc(C(F)(F)F)c4)C(Cc4ccc(F)c(F)c4)C3)CC2)C1 (single isomer, unassigned) [Compound 254] | 10 nM | 251 nM | 501 nM
O=C(c1ccoc1)N1CCC(N2CCN(C3CCN(C(=O)c4cc(C(F)(F)F)cc(C(F)(F)F)c4)C(Cc4ccccc4)C3)CC2)C1 (single isomer, unassigned) [Compound 33] | 15.8 nM | 3980 nM | 501 nM
O=C(c1ccccc1Cl)N1CCC(N2CCN(C3CCN(C(=O)c4cc(C(F)(F)F)cc(C(F)(F)F)c4)C(Cc4ccc(F)c(F)c4)C3)CC2)C1 (stereo not drawn) [Compound 255] | 15.8 nM | 1260 nM | 398 nM
O=C(Cc1cccs1)N1CCC(N2CCN([C@H]3CCN(C(=O)c4cc(C(F)(F)F)cc(C(F)(F)F)c4)[C@H](Cc4ccccc4)C3)CC2)C1 (stereo partly drawn) [Compound 67] | 25.1 nM | 3980 nM | 1000 nM
O=C(c1c[nH]c2ccccc12)N1CCC(N2CCN([C@H]3CCN(C(=O)c4cc(C(F)(F)F)cc(C(F)(F)F)c4)[C@H](Cc4ccccc4)C3)CC2)C1 (stereo partly drawn) [Compound 56] | 39.8 nM | 3160 nM | 126 nM
O=C(c1cc(C(F)(F)F)cc(C(F)(F)F)c1)N1CC[C@H](N2CCN(C3CCN(S(=O)(=O)c4sccc4CO)C3)CC2)C[C@H]1Cc1ccccc1 (stereo partly drawn) [Compound 308] | 7.94 nM | 200 nM | 251 nM
O=C(C(=O)N1CCC(N2CCN(C3CCN(C(=O)c4cc(C(F)(F)F)cc(C(F)(F)F)c4)C(Cc4ccccc4)C3)CC2)C1)c1ccco1 (stereo not drawn) [Compound 64] | 50.1 nM | 2510 nM | 158 nM

Continued, values first:

IC50 [1] | IC50 [2] | IC50 [3] | Structure (SMILES)
31.6 nM | 3160 nM | 7940 nM | COc1cccc(NC(=O)N2CCC(N3CCN(C4CCN(C(=O)c5cc(C(F)(F)F)cc(C(F)(F)F)c5)C(Cc5ccccc5)C4)CC3)C2)c1 (stereo not drawn) [Compound 343]
20 nM | 631 nM | 2510 nM | COc1cccc(S(=O)(=O)N2CCC(N3CCN([C@H]4CCN(C(=O)c5cc(C(F)(F)F)cc(C(F)(F)F)c5)[C@H](Cc5ccccc5)C4)CC3)C2)c1 (stereo partly drawn) [Compound 347]
12.6 nM | 3160 nM | 1580 nM | O=C(C1CCCCC1)N1CCC(N2CCN(C3CCN(C(=O)c4cc(C(F)(F)F)cc(C(F)(F)F)c4)C(Cc4ccc(F)c(F)c4)C3)CC2)C1 (stereo not drawn) [Compound 358]
251 nM | 3160 nM | 1260 nM | O=C(c1cc(C(F)(F)F)cc(C(F)(F)F)c1)N1CC[C@H](N2CCN(C3CCN(S(=O)(=O)c4ccccc4COCc4ccccc4)C3)CC2)C[C@H]1Cc1ccccc1 (stereo partly drawn) [Compound 401]
5.01 nM | 501 nM | 631 nM | O=C(c1ccccc1Cl)N1CC[C@H](N2CCN([C@H]3CCN(C(=O)c4cc(C(F)(F)F)cc(C(F)(F)F)c4)[C@H](Cc4ccc(Cl)c(Cl)c4)C3)CC2)C1 [Compound 315]
20 nM | 794 nM | 631 nM | O=C(c1c(Cl)cccc1Cl)N1CC[C@H](N2CCN([C@H]3CCN(C(=O)c4cc(C(F)(F)F)cc(C(F)(F)F)c4)[C@H](Cc4ccc(Cl)c(Cl)c4)C3)CC2)C1 [Compound 316]
3.16 nM | 631 nM | 398 nM | O=C(C1CCOC1)N1CCC(N2CCN(C3CCN(C(=O)c4cc(C(F)(F)F)cc(C(F)(F)F)c4)C(Cc4ccc(Cl)c(Cl)c4)C3)CC2)C1 (single isomer, unassigned) [Compound 330]
10 nM | 2000 nM | 3160 nM | O=C(c1ccc(O)cc1)N1CCC(N2CCN([C@H]3CCN(C(=O)c4cc(C(F)(F)F)cc(C(F)(F)F)c4)[C@H](Cc4ccccc4)C3)CC2)C1 (stereo partly drawn) [Compound 341]
50.1 nM | 6310 nM | 6310 nM | O=C(C1CC1)N1CCC(N2CCN(C3CCN(C(=O)c4cc(C(F)(F)F)cc(C(F)(F)F)c4)C(Cc4cc(F)cc(F)c4)C3)CC2)C1 (stereo not drawn) [Compound 340]
12.6 nM | 2510 nM | 2000 nM | O=C(c1ccc(CCO)s1)N1CCC(N2CCN(C3CCN(C(=O)c4cc(C(F)(F)F)cc(C(F)(F)F)c4)C(Cc4ccccc4)C3)CC2)C1 (stereo not drawn) [Compound 359]
31.6 nM | 5010 nM | 3160 nM | O=C(c1cc(C(F)(F)F)cc(C(F)(F)F)c1)N1CC[C@H](N2CCN(C3CCN(C(CO)c4cccs4)C3)CC2)C[C@H]1Cc1ccccc1 (stereo partly drawn) [Compound 319]
25.1 nM | 3160 nM | 794 nM | O=C(c1sccc1COCc1ccccc1)N1CCC(N2CCN([C@H]3CCN(C(=O)c4cc(C(F)(F)F)cc(C(F)(F)F)c4)[C@H](Cc4ccccc4)C3)CC2)C1 (stereo partly drawn) [Compound 353]
